Laboratory results taken from PubChem BioAssay (NCI).
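How tested: cells in 96-well plates exposed to compound for 48 hours at five concentrations. TGI denotes the concentration required for complete inhibition of growth.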

What was measured:
Assay in all cases: growth of human tumour cells (NCI), 48 h
UACC-62 melanoma = tested on: UACC-62 melanoma
HT29 colon = tested on: HT29 colon
OVCAR-4 ovarian = tested on: OVCAR-4 ovarian
OVCAR-3 ovarian = tested on: OVCAR-3 ovarian
UACC-257 melanoma = tested on: UACC-257 melanoma
NCI/ADR-RES ovarian = tested on: NCI/ADR-RES ovarian
SR leukemia = tested on: SR leukemia
HS 578T breast = tested on: HS 578T breast
HOP-62 NSCLC = tested on: HOP-62 NSCLC
TK-10 renal = tested on: TK-10 renal
SK-OV-3 ovarian = tested on: SK-OV-3 ovarian
IGROV1 ovarian = tested on: IGROV1 ovarian
HCT-15 colon = tested on: HCT-15 colon
SF-295 CNS = tested on: SF-295 CNS
SK-MEL-2 melanoma = tested on: SK-MEL-2 melanoma
786-0 renal = tested on: 786-0 renal
OVCAR-5 ovarian = tested on: OVCAR-5 ovarian
HOP-92 NSCLC = tested on: HOP-92 NSCLC
MCF7 breast = tested on: MCF7 breast
OVCAR-8 ovarian = tested on: OVCAR-8 ovarian
DU-145 prostate = tested on: DU-145 prostate
MALME-3M melanoma = tested on: MALME-3M melanoma
NCI-H226 lung = tested on: NCI-H226 lung
SF-539 CNS = tested on: SF-539 CNS
CAKI-1 renal = tested on: CAKI-1 renal
SNB-75 CNS = tested on: SNB-75 CNS
HCC-2998 colon = tested on: HCC-2998 colon
ACHN renal = tested on: ACHN renal
SNB-19 CNS = tested on: SNB-19 CNS
UO-31 renal = tested on: UO-31 renal
NCI-H23 lung = tested on: NCI-H23 lung
NCI-H522 lung = tested on: NCI-H522 lung
RXF 393 renal = tested on: RXF 393 renal
LOX IMVI melanoma = tested on: LOX IMVI melanoma
A498 renal = tested on: A498 renal
BT-549 breast = tested on: BT-549 breast
MDA-N = tested on: MDA-N
SK-MEL-5 melanoma = tested on: SK-MEL-5 melanoma
COLO 205 colon = tested on: COLO 205 colon
HCT-116 colon = tested on: HCT-116 colon
SF-268 CNS = tested on: SF-268 CNS
NCI-H460 lung = tested on: NCI-H460 lung
CCRF-CEM leukemia = tested on: CCRF-CEM leukemia
MDA-MB-435 = tested on: MDA-MB-435
MDA-MB-231 breast = tested on: MDA-MB-231 breast
A549 NSCLC = tested on: A549 NSCLC
SW-620 colon = tested on: SW-620 colon
SN12C renal = tested on: SN12C renal
PC-3 prostate = tested on: PC-3 prostate
U251 CNS = tested on: U251 CNS
M14 melanoma = tested on: M14 melanoma
SK-MEL-28 melanoma = tested on: SK-MEL-28 melanoma
K-562 leukemia = tested on: K-562 leukemia

Measured: TGI

O=c1[nH]c(Nc2nc3ccccc3[nH]2)nc(O)c1-c1ccccc1
> 100 µM: UACC-62 melanoma | HT29 colon | OVCAR-4 ovarian | OVCAR-3 ovarian | UACC-257 melanoma | NCI/ADR-RES ovarian | SR leukemia | HS 578T breast | HOP-62 NSCLC | TK-10 renal | SK-OV-3 ovarian | IGROV1 ovarian | HCT-15 colon | SF-295 CNS | SK-MEL-2 melanoma | 786-0 renal | OVCAR-5 ovarian | HOP-92 NSCLC | MCF7 breast | OVCAR-8 ovarian | DU-145 prostate | MALME-3M melanoma | NCI-H226 lung | SF-539 CNS | CAKI-1 renal | SNB-75 CNS | HCC-2998 colon | ACHN renal | SNB-19 CNS | UO-31 renal | NCI-H23 lung | NCI-H522 lung | RXF 393 renal | LOX IMVI melanoma | A498 renal | BT-549 breast | MDA-N | SK-MEL-5 melanoma | COLO 205 colon | HCT-116 colon | SF-268 CNS | NCI-H460 lung | CCRF-CEM leukemia | MDA-MB-435 | MDA-MB-231 breast | A549 NSCLC | SW-620 colon | SN12C renal | PC-3 prostate | U251 CNS | M14 melanoma | SK-MEL-28 melanoma | K-562 leukemia
